Assay results as given in US7074789B2, “Kinase inhibitors” (Amgen Inc., priority 1999, dated 2006).
Values joined by “and” are separate entries in the source; they are usually repeats but may differ in a detail not shown here. Equal values may be shown once. Read-outs that look alike come from different tables or passages of the source.

Tests used:
Type in all cases: biochemical
[1] = target: T1, Ret-1 (Homo sapiens, UniProt P07949); experiment: Kinase inhibition assay (33P transfer), Ret; details: Table 6, Ret-1 kinase inhibition class
T1 construct: Kinases are expressed as either kinase domains or full length constructs; made in house

[2] = target: T2, Src (Homo sapiens, UniProt P12931); experiment: Kinase inhibition assay (33P transfer), Src; details: Table 6, Src-1 kinase inhibition class
T2 construct: Kinases are expressed as either kinase domains or full length constructs; made in house
T2 sequence (P12931 whole entry, species assumed, the tested form may be a part): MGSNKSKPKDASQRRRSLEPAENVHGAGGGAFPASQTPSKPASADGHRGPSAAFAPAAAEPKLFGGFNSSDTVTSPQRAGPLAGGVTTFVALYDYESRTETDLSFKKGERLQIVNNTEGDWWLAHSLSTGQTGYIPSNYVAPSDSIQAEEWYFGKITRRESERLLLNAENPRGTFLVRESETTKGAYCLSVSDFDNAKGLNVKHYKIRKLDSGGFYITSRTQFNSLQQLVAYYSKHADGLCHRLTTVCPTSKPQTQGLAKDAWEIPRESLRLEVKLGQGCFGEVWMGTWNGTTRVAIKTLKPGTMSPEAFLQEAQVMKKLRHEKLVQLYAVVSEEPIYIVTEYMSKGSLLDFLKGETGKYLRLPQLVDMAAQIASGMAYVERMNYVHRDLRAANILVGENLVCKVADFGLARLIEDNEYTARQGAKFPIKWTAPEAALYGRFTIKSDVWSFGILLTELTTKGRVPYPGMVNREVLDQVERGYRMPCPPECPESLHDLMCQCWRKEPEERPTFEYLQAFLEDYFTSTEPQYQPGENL
Method in brief: (§1)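 Activity read as 33P incorporation from ATP into poly(Glu,Tyr) 4:1 or poly(Arg,Ser) 3:1 substrate bound to microtiter plates, measured by scintillation after acid washing. Enzymes were affinity-purified GST or polyHis fusions (kinase domain or full length) from E. coli or baculovirus; IC50 = 50% reduction in labelled phosphate.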

[3] = target: T3, ErbB2 (Homo sapiens, UniProt P04626); experiment: Kinase inhibition assay (33P transfer), ErbB2; details: read-out: ErbB2-2
T3 construct: Kinases are expressed as either kinase domains or full length constructs; made in house
T3 sequence (P04626 23-1255, species assumed): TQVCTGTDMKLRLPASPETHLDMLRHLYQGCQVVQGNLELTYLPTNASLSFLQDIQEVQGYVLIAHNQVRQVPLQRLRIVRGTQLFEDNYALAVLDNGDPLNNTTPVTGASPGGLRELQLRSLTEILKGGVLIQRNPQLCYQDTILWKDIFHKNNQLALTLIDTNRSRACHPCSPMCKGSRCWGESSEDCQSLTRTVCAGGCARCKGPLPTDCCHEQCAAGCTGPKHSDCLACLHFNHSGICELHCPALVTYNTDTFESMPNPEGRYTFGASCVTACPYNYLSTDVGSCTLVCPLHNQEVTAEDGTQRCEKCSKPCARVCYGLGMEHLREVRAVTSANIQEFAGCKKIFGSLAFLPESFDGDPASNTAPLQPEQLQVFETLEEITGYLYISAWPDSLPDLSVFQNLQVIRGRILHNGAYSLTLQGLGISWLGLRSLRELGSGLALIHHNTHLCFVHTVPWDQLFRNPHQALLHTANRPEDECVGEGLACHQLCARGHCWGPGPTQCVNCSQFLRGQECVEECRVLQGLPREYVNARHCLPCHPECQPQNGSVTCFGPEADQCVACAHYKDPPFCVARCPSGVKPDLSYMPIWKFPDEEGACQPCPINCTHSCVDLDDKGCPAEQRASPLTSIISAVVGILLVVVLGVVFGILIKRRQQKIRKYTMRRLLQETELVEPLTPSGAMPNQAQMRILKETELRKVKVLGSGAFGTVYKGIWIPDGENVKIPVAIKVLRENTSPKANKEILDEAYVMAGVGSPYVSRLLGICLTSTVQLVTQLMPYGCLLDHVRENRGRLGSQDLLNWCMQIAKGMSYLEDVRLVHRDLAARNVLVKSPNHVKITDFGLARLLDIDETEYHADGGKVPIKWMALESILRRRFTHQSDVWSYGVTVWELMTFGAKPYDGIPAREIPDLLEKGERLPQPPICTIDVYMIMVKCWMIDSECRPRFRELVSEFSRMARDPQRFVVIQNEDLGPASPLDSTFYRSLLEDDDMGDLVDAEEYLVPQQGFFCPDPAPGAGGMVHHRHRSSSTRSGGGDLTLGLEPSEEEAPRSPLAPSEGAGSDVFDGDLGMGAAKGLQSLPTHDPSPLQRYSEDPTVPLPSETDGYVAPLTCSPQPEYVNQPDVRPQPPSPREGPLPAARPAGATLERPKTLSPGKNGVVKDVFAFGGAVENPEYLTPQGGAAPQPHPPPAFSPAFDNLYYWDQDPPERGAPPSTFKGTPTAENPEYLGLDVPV
Method in brief: as §1

[4] = target: T4, Lyn (Homo sapiens, UniProt P07948); experiment: Kinase inhibition assay (33P transfer), Lyn; details: Table 6, Lyn-1 kinase inhibition class
T4 construct: Kinases are expressed as either kinase domains or full length constructs; made in house
T4 sequence (P07948 whole entry, species assumed, the tested form may be a part): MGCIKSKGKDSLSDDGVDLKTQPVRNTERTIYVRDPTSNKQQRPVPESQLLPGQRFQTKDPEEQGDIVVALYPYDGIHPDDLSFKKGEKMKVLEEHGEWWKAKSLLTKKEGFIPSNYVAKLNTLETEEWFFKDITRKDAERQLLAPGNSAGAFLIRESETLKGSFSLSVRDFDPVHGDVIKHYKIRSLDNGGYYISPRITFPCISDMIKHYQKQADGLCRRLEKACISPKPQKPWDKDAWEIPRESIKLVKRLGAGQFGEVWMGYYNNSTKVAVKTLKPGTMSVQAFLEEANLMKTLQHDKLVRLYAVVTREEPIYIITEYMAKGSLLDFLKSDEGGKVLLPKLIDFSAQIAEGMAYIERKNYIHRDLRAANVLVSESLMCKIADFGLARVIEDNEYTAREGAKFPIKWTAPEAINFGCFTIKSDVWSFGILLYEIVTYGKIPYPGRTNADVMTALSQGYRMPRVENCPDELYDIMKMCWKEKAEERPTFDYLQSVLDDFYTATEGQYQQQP
Method in brief: as §1

[5] = target: T5, Kdr (Homo sapiens, UniProt P35968); experiment: Kinase inhibition assay (33P transfer), Kdr; details: read-out: KDR-1
T5 construct: Kinases are expressed as either kinase domains or full length constructs; made in house
Method in brief: (§2)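 Steps: express kinase as GST or polyHistidine fusion in E. coli or High Five cells; optionally co-express or mix with regulatory polypeptides; incubate with 33P-ATP and plate-attached poly(Glu,Tyr) 4:1 or poly(Arg,Ser) 3:1; wash with 0.5% phosphoric acid; count by liquid scintillation.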

[6] = target: T6, Itk (Homo sapiens, UniProt Q08881); experiment: Kinase inhibition assay (33P transfer), Itk; details: read-out: Itk-1
T6 construct: Kinases are expressed as either kinase domains or full length constructs; made in house
T6 sequence (Q08881 1-620): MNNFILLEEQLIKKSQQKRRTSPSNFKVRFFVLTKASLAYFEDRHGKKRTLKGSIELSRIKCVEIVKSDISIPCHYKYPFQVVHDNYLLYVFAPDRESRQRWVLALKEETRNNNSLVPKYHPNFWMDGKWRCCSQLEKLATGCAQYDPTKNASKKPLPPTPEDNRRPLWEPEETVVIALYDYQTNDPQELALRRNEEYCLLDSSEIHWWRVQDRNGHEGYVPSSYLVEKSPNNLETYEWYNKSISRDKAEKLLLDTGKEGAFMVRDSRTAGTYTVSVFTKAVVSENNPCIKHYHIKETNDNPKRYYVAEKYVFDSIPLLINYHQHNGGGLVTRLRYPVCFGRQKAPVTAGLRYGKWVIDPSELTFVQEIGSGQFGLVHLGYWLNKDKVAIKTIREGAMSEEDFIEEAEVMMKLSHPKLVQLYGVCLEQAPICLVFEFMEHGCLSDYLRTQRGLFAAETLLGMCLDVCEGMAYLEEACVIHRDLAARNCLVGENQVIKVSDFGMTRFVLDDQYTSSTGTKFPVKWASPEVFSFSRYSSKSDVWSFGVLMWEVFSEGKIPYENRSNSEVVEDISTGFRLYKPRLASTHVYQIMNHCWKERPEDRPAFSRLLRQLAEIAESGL
Method in brief: as §1

[7] = target: T7, Lck (Homo sapiens, UniProt P06239); experiment: Kinase inhibition assay (33P transfer), Lck; details: read-out: Lck-1
T7 construct: Kinases are expressed as either kinase domains or full length constructs; made in house
Method in brief: as §2

[8] = target: T8, AKT (Homo sapiens, UniProt Q9Y243); experiment: Kinase inhibition assay (33P transfer), AKT; details: Table 2, kinase inhibition class; read-out: AKT3-1
T8 construct: Kinases are expressed as either kinase domains or full length constructs; made in house
Method in brief: as §2

[9] = target: T9, Zap-70 (Homo sapiens, UniProt P43403); experiment: Kinase inhibition assay (33P transfer), Zap-70; details: read-out: Zap-1
T9 construct: Kinases are expressed as either kinase domains or full length constructs; made in house
T9 sequence (P43403 1-619): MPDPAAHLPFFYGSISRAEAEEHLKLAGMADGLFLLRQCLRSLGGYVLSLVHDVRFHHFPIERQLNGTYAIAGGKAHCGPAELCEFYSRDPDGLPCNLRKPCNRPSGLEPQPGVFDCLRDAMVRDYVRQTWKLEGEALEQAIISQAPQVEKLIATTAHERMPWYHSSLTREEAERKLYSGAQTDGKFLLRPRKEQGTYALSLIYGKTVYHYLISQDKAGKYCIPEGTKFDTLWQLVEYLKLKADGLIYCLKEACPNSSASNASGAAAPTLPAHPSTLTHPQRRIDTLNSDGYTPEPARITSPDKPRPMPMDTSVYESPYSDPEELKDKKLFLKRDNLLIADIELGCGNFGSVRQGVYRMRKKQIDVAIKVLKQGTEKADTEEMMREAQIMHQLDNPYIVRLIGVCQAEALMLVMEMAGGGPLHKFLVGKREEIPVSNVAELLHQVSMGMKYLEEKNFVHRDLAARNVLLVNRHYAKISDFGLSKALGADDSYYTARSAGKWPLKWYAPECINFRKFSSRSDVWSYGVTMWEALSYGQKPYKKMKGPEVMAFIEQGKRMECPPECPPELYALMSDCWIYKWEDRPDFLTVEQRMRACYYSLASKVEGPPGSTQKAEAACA
Method in brief: as §2

[10] = target: T10, ErbB4 (Homo sapiens, UniProt Q15303); experiment: Kinase inhibition assay (33P transfer), ErbB4; details: read-out: ErbB4-1
T10 construct: Kinases are expressed as either kinase domains or full length constructs; made in house

[11] = target: T11, Flt-1 (Homo sapiens, UniProt P17948); experiment: Kinase inhibition assay (33P transfer), Flt-1
T11 construct: Kinases are expressed as either kinase domains or full length constructs; made in house
Method in brief: as §1

[12] = target: T12, FGFR1 (Homo sapiens, UniProt P11362); experiment: Kinase inhibition assay (33P transfer), FGFR1; details: read-out: FGFR1-1
T12 construct: Kinases are expressed as either kinase domains or full length constructs; made in house

[13] = target: T13, IGFR-1 (Homo sapiens, UniProt P08069); experiment: Kinase inhibition assay, IGFR-1 (Table 2); details: Table 2, kinase inhibition class
T13 construct: Kinases are expressed as either kinase domains or full length constructs; made in house

[14] = target: T14, Fyn (Homo sapiens, UniProt P06241); experiment: Kinase inhibition assay (33P transfer), Fyn; details: read-out: Fyn-1
T14 construct: Kinases are expressed as either kinase domains or full length constructs; made in house
T14 sequence (P06241 whole entry, species assumed, the tested form may be a part): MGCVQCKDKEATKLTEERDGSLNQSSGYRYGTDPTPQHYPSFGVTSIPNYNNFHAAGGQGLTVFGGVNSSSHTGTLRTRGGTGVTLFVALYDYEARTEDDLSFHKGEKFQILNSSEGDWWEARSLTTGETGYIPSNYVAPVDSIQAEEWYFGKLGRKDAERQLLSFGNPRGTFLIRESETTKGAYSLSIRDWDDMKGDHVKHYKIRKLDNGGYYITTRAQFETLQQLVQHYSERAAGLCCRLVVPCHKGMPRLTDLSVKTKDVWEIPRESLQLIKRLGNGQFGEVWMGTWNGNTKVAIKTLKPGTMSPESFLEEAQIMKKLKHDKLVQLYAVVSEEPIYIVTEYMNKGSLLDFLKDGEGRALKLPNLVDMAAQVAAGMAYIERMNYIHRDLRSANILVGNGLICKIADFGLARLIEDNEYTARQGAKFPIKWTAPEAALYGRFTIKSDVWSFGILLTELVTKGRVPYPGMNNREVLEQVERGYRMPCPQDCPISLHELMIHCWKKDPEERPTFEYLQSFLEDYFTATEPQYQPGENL
Method in brief: as §1

[15] = target: T15, PDGFRB (Homo sapiens, UniProt P09619); experiment: Kinase inhibition assay (33P transfer), PDGFRB; details: read-out: PDGFRB-1
T15 construct: Kinases are expressed as either kinase domains or full length constructs; made in house

[16] = target: T16, c-Met (Homo sapiens, UniProt P08581); experiment: Kinase inhibition assay (33P transfer), c-Met; details: Table 2, kinase inhibition class; read-out: Met-1
T16 construct: Kinases are expressed as either kinase domains or full length constructs; made in house
T16 sequence (P08581 25-1390): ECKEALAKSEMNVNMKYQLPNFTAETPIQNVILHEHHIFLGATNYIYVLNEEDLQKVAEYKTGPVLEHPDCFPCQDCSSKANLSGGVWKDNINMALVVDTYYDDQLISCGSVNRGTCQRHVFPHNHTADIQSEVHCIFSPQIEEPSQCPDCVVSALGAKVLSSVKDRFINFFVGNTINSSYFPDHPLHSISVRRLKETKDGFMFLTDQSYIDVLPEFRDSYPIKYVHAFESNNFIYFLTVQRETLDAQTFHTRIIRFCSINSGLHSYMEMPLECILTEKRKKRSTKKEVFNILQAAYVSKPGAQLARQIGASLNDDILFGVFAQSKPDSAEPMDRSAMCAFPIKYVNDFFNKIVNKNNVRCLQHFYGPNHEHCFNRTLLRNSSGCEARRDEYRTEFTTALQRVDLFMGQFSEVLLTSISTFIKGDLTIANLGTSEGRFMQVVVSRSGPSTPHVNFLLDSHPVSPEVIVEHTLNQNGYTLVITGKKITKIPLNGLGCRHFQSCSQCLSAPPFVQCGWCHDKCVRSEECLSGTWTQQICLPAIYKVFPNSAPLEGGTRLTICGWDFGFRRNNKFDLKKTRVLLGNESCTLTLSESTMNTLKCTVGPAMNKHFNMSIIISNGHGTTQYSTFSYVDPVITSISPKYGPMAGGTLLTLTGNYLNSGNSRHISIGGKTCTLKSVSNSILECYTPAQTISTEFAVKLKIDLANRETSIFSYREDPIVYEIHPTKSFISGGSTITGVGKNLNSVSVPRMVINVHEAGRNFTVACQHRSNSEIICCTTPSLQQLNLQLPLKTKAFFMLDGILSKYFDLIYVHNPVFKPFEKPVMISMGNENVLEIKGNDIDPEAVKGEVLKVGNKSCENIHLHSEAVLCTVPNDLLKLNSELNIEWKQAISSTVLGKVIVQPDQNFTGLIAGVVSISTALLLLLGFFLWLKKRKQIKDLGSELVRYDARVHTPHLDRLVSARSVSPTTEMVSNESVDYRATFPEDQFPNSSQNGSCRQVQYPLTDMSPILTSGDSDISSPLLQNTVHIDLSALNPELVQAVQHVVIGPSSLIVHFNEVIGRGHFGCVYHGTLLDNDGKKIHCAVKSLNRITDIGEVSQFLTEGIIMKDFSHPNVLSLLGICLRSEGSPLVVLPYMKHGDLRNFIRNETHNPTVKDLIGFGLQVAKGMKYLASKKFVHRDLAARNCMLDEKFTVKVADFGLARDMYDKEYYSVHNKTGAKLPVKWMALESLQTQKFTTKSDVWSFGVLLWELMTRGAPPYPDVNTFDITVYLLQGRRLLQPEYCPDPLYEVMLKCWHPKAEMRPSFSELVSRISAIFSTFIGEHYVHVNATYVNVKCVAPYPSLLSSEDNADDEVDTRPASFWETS
Method in brief: as §1

[17] = target: T17, EGFR (Homo sapiens, UniProt P00533); experiment: Kinase inhibition assay (33P transfer), EGFR; details: Table 2, kinase inhibition class; read-out: EGFR-1
T17 construct: Kinases are expressed as either kinase domains or full length constructs; made in house
Method in brief: as §1

[18] = target: T18, Hck-1 (Homo sapiens, UniProt P08631); experiment: Kinase inhibition assay (33P transfer), Hck; details: Table 6, Hck-1 kinase inhibition class
T18 construct: Kinases are expressed as either kinase domains or full length constructs; made in house
T18 sequence (P08631 whole entry, the tested form may be a part): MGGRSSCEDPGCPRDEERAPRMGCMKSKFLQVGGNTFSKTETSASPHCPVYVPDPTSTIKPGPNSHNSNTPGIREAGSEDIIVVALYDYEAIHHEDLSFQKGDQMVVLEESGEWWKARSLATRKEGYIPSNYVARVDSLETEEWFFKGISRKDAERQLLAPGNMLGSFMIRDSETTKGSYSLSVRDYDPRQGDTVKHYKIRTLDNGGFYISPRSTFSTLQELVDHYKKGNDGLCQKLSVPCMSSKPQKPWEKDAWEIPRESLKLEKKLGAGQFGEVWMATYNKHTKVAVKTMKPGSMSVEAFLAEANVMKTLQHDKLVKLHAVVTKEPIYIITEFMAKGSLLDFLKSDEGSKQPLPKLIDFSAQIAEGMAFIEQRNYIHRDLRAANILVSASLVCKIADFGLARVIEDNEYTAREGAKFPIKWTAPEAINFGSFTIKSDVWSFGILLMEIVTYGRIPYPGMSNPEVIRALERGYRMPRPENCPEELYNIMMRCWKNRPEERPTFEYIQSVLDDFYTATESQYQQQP

[19] = target: T15, PDGFRB; experiment: Kinase inhibition assay (33P transfer), PDGFRB; details: read-out: PDGFRB-1; remark: listed apart in the source

| Compound | IC50 [1] | IC50 [2] | IC50 [3] | IC50 [4] | IC50 [5] | IC50 [6] | IC50 [7] | IC50 [8] | IC50 [9] | IC50 [10] | IC50 [11] | IC50 [12] | IC50 [13] | IC50 [14] | IC50 [15] | IC50 [16] | IC50 [17] | IC50 [18] | IC50 [19] |
| --- | --- | --- | --- | --- | --- | --- | --- | --- | --- | --- | --- | --- | --- | --- | --- | --- | --- | --- | --- |
| Cc1cccc(Nc2ncnc(N3CCCc4ccc(C(F)(F)F)cc43)n2)c1 [Compound 582] | 6.23 to 9.08 µM | > 11.7 µM | 1.04 to 6.23 µM | > 11.7 µM | 6.23 to 9.08 µM | > 11.7 µM | 6.23 to 9.08 µM | > 11.7 µM | > 11.7 µM | > 11.7 µM | > 11.7 µM | 1.04 to 6.23 µM | > 11.7 µM | > 11.7 µM | > 11.7 µM | 9.08 to 11.7 µM | < 1.04 µM | – | – |
| CCN(CC)CCOc1ccc(Nc2ncnc(Nc3cc(OC)c(OC)c(OC)c3)n2)cc1OC [Compound 602] | > 9.03 µM | 0.802 to 4.81 µM | 0.802 to 4.81 µM | 0.802 to 4.81 µM | 7.02 to 9.03 µM | > 9.03 µM | 0.802 to 4.81 µM | > 9.03 µM | > 9.03 µM | 0.802 to 4.81 µM | > 9.03 µM | > 9.03 µM | > 9.03 µM | 0.802 to 4.81 µM | – | > 9.03 µM | 0.802 to 4.81 µM | > 9.03 µM | 0.802 to 4.81 µM |

Other lines, results leading:

| IC50 [1] | IC50 [2] | IC50 [3] | IC50 [4] | IC50 [5] | IC50 [6] | IC50 [7] | IC50 [8] | IC50 [9] | IC50 [10] | IC50 [11] | IC50 [12] | IC50 [13] | IC50 [14] | IC50 [15] | IC50 [16] | IC50 [17] | IC50 [18] | IC50 [19] | Compound |
| --- | --- | --- | --- | --- | --- | --- | --- | --- | --- | --- | --- | --- | --- | --- | --- | --- | --- | --- | --- |
| < 0.761 µM | > 8.56 µM | 4.57 to 6.66 µM and < 0.761 µM | 4.57 to 6.66 µM | 0.761 to 4.57 µM and < 0.761 µM | > 8.56 µM | 0.761 to 4.57 µM | > 8.56 µM | > 8.56 µM | < 0.761 µM | 0.761 to 4.57 µM | 0.761 to 4.57 µM | > 8.56 µM | > 8.56 µM | > 8.56 µM | > 8.56 µM | – | – | – | COc1cc(Nc2ncnc(-n3c(NC4c5ccccc5CC4O)nc4ccccc43)n2)cc(OC)c1OC (stereo not drawn) [Compound 579] |
| 0.746 to 4.48 µM | > 8.4 µM | 6.53 to 8.4 µM | 4.48 to 6.53 µM | < 0.746 µM | > 8.4 µM | 4.48 to 6.53 µM | > 8.4 µM | > 8.4 µM | > 8.4 µM | 4.48 to 6.53 µM | 0.746 to 4.48 µM | 6.53 to 8.4 µM | > 8.4 µM | – | > 8.4 µM | > 8.4 µM | > 8.4 µM | 0.746 to 4.48 µM | COc1cc(Nc2ncnc(-n3c(NCc4ccc(Cl)cc4F)nc4ccccc43)n2)cc(OC)c1OC [Compound 606] |
| < 0.687 µM | < 0.687 µM | < 0.687 µM | < 0.687 µM | 0.687 to 4.12 µM | 4.12 to 6.01 µM | < 0.687 µM | > 7.72 µM | > 7.72 µM | < 0.687 µM | > 7.72 µM | 0.687 to 4.12 µM | 0.687 to 4.12 µM | < 0.687 µM | – | > 7.72 µM | < 0.687 µM | 4.12 to 6.01 µM | < 0.687 µM | COc1cc(Nc2ncnc(Nc3ccc4c(cnn4Cc4ccccc4)c3)n2)cc(OC)c1OCCN1CCOCC1 [Compound 559] |
